# Test results taken from EPA's ToxRefDB 2.
# Key:
# [1] = test system: rabbit; conditions: Prenatal developmental toxicity study, new zealand white, Oral, Gavage/Intubation, dose end: 19 GD
# [2] = test system: rat; conditions: Prenatal developmental toxicity study, sprague dawley, Oral, Gavage/Intubation, dose end: 15 GD
# [3] = test system: rat; conditions: Prenatal developmental toxicity study, sprague dawley, Oral, Gavage/Intubation, dose end: 15 GD; remark: listed apart in the source
# [4] = test system: dog; conditions: Chronic toxicity, beagle, Oral, Capsule, dose end: 52 week, group: systemic
# [5] = test system: rat; conditions: Combined chronic toxicity/carcinogenicity, sprague dawley, Oral, Feed, dose end: 104 week, group: systemic
# [6] = test system: rat; conditions: Chronic toxicity, sprague dawley, Oral, Feed, dose end: 104 week, group: systemic
# [7] = test system: rat; conditions: Subchronic oral toxicity in rodents, sprague dawley, Feed, dose end: 90 day, group: systemic, systemic / organ weight / liver / absolute + systemic / organ weight / liver / relative to body weight + systemic / pathology microscopic / …
# [8] = test system: mouse; conditions: Carcinogenicity, cd1, Oral, Feed, dose end: 104 week, group: systemic
# [9] = test system: rat; conditions: Multigenerational reproductive toxicity study, sprague dawley, Oral, Feed, dose end: 2 generation
# [10] = test system: dog; conditions: Subchronic oral toxicity in nonrodent, beagle, Capsule, dose end: 90 day, group: systemic, systemic / clinical chemistry / alkaline phosphatase (alp/alk) / alkaline phosphatase (alp/alk) + systemic / organ weight / liver / relative…
# [11] = test system: mouse; conditions: Carcinogenicity; cd1; Oral; Feed; dose end: 104 week; group: systemic; systemic / organ weight / liver / relative to body weight + systemic / pathology gross / liver / discolored + systemic / pathology …
# [12] = test system: rat; conditions: Subchronic oral toxicity in rodents, fischer, Gavage/Intubation, dose end: 13 week, group: systemic
# [13] = test system: mouse; conditions: Subchronic oral toxicity in rodents, b6c3f1, Gavage/Intubation, dose end: 13 week, group: systemic
# [14] = test system: rat; conditions: Multigenerational reproductive toxicity study, sprague dawley, Oral, Feed, dose end: 2 generation; remark: listed apart in the source
# [15] = test system: rat; conditions: Prenatal developmental toxicity study, sprague dawley, Oral, Gavage/Intubation, dose end: 15 GD; remark: listed apart in the source
# [16] = test system: rat; conditions: Combined chronic toxicity/carcinogenicity, sprague dawley, Oral, Feed, dose end: 24 month, group: systemic
# [17] = test system: rat; conditions: Subchronic oral toxicity in rodents, sprague dawley, Feed, dose end: 90 day
# [18] = test system: dog; conditions: Chronic toxicity, beagle, Oral, Capsule, dose end: 12 month, group: systemic
# [19] = test system: rat; conditions: Combined chronic toxicity/carcinogenicity, sprague dawley, Dermal, Topical, dose end: 24 month, group: systemic
# [20] = test system: rat; conditions: Subchronic oral toxicity in rodents, sprague dawley, Feed, dose end: 14 week, group: systemic
# [21] = group: developmental, developmental / developmental malformation / bone / absent + developmental / developmental malformation / bone / fused + developmental / …
# [22] = group: maternal, systemic / in life observation / food consumption / food consumption + systemic / pathology microscopic / liver / apoptosis + systemic / …
# [23] = group: developmental, developmental / developmental malformation / bone / delayed ossification + developmental / developmental malformation / bone / incomplete …
# [24] = group: maternal, systemic / in life observation / body weight / body weight gain + systemic / in life observation / clinical signs / urogenital staining + …
# [25] = group: developmental, developmental / developmental malformation / bone / incomplete ossification
# [26] = group: maternal, systemic / in life observation / body weight / body weight + systemic / in life observation / clinical signs / ataxia + systemic / in life …
# [27] = systemic / clinical chemistry / glucose / glucose
# [28] = systemic / pathology microscopic / liver / dilatation + systemic / pathology microscopic / liver / inflammation + systemic / pathology …
# [29] = systemic / pathology microscopic / testes / atrophy
# [30] = systemic / pathology microscopic / testes / atrophy + systemic / organ weight / epididymis / relative to body weight + systemic / organ …
# [31] = systemic / pathology microscopic / liver / pigmentation + systemic / pathology microscopic / liver / vacuolization
# [32] = systemic / pathology microscopic / liver / pigmentation + systemic / pathology microscopic / liver / vacuolization + systemic / pathology …
# [33] = group: offspring, systemic / in life observation / body weight / offspring (pup) weight gain + developmental / developmental landmark / eye opening / eye …
# [34] = group: parental, systemic / pathology microscopic / liver / fatty change
# [35] = group: parental, systemic / pathology microscopic / liver / fatty change + systemic / in life observation / body weight / body weight + systemic / in life …
# [36] = group: reproductive, reproductive / offspring survival early / litter size / litter size
# [37] = systemic / clinical chemistry / urea nitrogen / urea nitrogen + systemic / hematology / neutrophils / neutrophils + systemic / in life …
# [38] = systemic / in life observation / body weight / body weight + systemic / in life observation / body weight / body weight gain + systemic / in…
# [39] = systemic / hematology / hemoglobin (hgb) / hemoglobin (hgb)
# [40] = systemic / hematology / hemoglobin (hgb) / hemoglobin (hgb) + systemic / hematology / erythrocyte (rbc) count differential / erythrocyte (…
# [41] = group: offspring, developmental / offspring survival late / viability index / viability index + systemic / in life observation / body weight / offspring (pup…
# [42] = group: parental, systemic / in life observation / body weight / body weight + systemic / in life observation / body weight / body weight gain + systemic / in…
# [43] = group: reproductive, reproductive / offspring survival early / birth index / live birth index
# [44] = group: developmental, developmental / developmental malformation / heart / [other] + developmental / developmental malformation / heart / defect a-v septum
# [45] = group: developmental, developmental / developmental malformation / heart / [other] + developmental / developmental malformation / heart / defect a-v septum + …
# [46] = group: maternal, reproductive / reproductive performance / resorptions / resorptions + reproductive / offspring survival early / litter size / litter size + …
# [47] = systemic / pathology microscopic / kidney / nephropathy + systemic / hematology / hemoglobin (hgb) / hemoglobin (hgb) + systemic / …
# [48] = group: cholinesterase, cholinesterase / cholinesterase / cholinesterase / cholinesterase (che)
# [49] = group: systemic, systemic / hematology / mean corpuscular (cell) volume (mcv) / mean corpuscular (cell) volume (mcv) + systemic / hematology / mean …
# [50] = group: systemic, systemic / organ weight / thyroid gland / absolute
# [51] = systemic / clinical chemistry / alkaline phosphatase (alp/alk) / alkaline phosphatase (alp/alk) + systemic / organ weight / liver / absolute…
# [52] = systemic / pathology microscopic / skin / hyperkeratosis
# [53] = systemic / pathology microscopic / skin / hyperkeratosis + systemic / pathology microscopic / skin / acanthosis + systemic / clinical …
# [54] = systemic / in life observation / body weight / body weight + systemic / in life observation / body weight / body weight gain + systemic / …
smiles,measurement,setting,value
O=[N+]([O-])c1cc(C(F)(F)F)c(Cl)c([N+](=O)[O-])c1Nc1ncc(C(F)(F)F)cc1Cl [Fluazinam],LEL,[1]; [21],12 mg/kg/day
same,LOAEL,[1]; [21],12 mg/kg/day
same,NEL,[1]; [21],7 mg/kg/day
same,NOAEL,[1]; [21],7 mg/kg/day
same,LEL,"[1]; group: maternal, reproductive / reproductive performance / aborted / aborted",4 mg/kg/day
same,LOAEL,[1]; [22],7 mg/kg/day
same,NEL,[1]; [22],2 mg/kg/day
same,NOAEL,[1]; [22],4 mg/kg/day
same,LOAEL,[2]; [23],250 mg/kg/day
same,NEL,[2]; [23],10 mg/kg/day
same,NOAEL,[2]; [23],50 mg/kg/day
same,LEL,"[2]; group: developmental, developmental / developmental malformation / bone / full supernumerary",50 mg/kg/day
same,LEL,[2]; [24],250 mg/kg/day
same,LOAEL,[2]; [24],250 mg/kg/day
same,NEL,[2]; [24],50 mg/kg/day
same,NOAEL,[2]; [24],50 mg/kg/day
same,LEL,[3]; [25],100 mg/kg/day
same,LOAEL,[3]; [25],> 1000 mg/kg/day
same,NEL,[3]; [25],10 mg/kg/day
same,NOAEL,[3]; [25],≥ 1000 mg/kg/day
same,LEL,[3]; [26],1000 mg/kg/day
same,LOAEL,[3]; [26],> 1000 mg/kg/day
same,NEL,[3]; [26],100 mg/kg/day
same,NOAEL,[3]; [26],≥ 1000 mg/kg/day
same,LEL,[4]; [27],1 mg/kg/day
same,NEL,[4]; [27],< 1 mg/kg/day
same,LOAEL,[4]; systemic / in life observation / clinical signs / nasal dryness + systemic / pathology microscopic / stomach / hyperplasia,10 mg/kg/day
same,NOAEL,[4]; systemic / in life observation / clinical signs / nasal dryness + systemic / pathology microscopic / stomach / hyperplasia + systemic / …,1 mg/kg/day
same,LOAEL,[5]; [28],3.8 mg/kg/day
same,NOAEL,[5]; [28],0.38 mg/kg/day
same,LEL,[5]; [29],0.04 mg/kg/day
same,NEL,[5]; [29],< 0.04 mg/kg/day
same,LOAEL,[6]; [29],3.9 mg/kg/day
same,LEL,[6]; [30],3.9 mg/kg/day
same,NEL,[6]; [30],1.9 mg/kg/day
same,NOAEL,[6]; [30],1.9 mg/kg/day
same,LEL,[7],38 mg/kg/day
same,LOAEL,[7],38 mg/kg/day
same,NEL,[7],3.8 mg/kg/day
same,NOAEL,[7],3.8 mg/kg/day
same,LEL,[8]; [31],10.7 mg/kg/day
same,LOAEL,[8]; [31],10.7 mg/kg/day
same,NEL,[8]; [32],1.12 mg/kg/day
same,NOAEL,[8]; [32],1.12 mg/kg/day
same,LOAEL,"[9]; group: offspring, systemic / in life observation / body weight / offspring (pup) weight gain",47.3 mg/kg/day
same,LEL,[9]; [33],47.3 mg/kg/day
same,NEL,[9]; [33],9.7 mg/kg/day
same,NOAEL,[9]; [33],9.7 mg/kg/day
same,LEL,[9]; [34],9.7 mg/kg/day
same,LOAEL,[9]; [34],9.7 mg/kg/day
same,NEL,[9]; [35],1.9 mg/kg/day
same,NOAEL,[9]; [35],1.9 mg/kg/day
same,LEL,[9]; [36],47.3 mg/kg/day
same,LOAEL,[9]; [36],47.3 mg/kg/day
same,NEL,[9]; [36],9.7 mg/kg/day
same,NOAEL,[9]; [36],9.7 mg/kg/day
same,LEL,[10],100 mg/kg/day
same,LOAEL,[10],100 mg/kg/day
same,NEL,[10],10 mg/kg/day
same,NOAEL,[10],10 mg/kg/day
same,LEL,[11],126 mg/kg/day
same,LOAEL,[11],126 mg/kg/day
same,NEL,[11],< 126 mg/kg/day
same,NOAEL,[11],< 126 mg/kg/day
O=C1OC(=O)c2c(Cl)c(Cl)c(Cl)c(Cl)c21 [Tetrachlorophthalic anhydride],LOAEL,[12]; [37],> 1500 mg/kg/day
same,NOAEL,[12]; [37],≥ 1500 mg/kg/day
same,LEL,[12]; [38],94 mg/kg/day
same,NEL,[12]; [38],< 94 mg/kg/day
same,LEL,[13]; [39],94 mg/kg/day
same,NEL,[13]; [39],< 94 mg/kg/day
same,LOAEL,[13]; [40],> 1500 mg/kg/day
same,NOAEL,[13]; [40],≥ 1500 mg/kg/day
C#CCN1C(=O)COc2cc(F)c(N3C(=O)C4=C(CCCC4)C3=O)cc21 [Flumioxazin],LEL,[14]; [41],12.7 mg/kg/day
same,NEL,[14]; [41],6.3 mg/kg/day
same,LOAEL,"[14]; group: offspring, systemic / in life observation / body weight / offspring (pup) weight",15.1 mg/kg/day
same,NOAEL,"[14]; group: offspring, systemic / in life observation / body weight / offspring (pup) weight + developmental / offspring survival late / lactation index / …",7.6 mg/kg/day
same,LOAEL,"[14]; group: parental, systemic / in life observation / body weight / body weight",12.7 mg/kg/day
same,NEL,[14]; [42],6.3 mg/kg/day
same,NOAEL,[14]; [42],6.3 mg/kg/day
same,LEL,"[14]; group: parental, systemic / in life observation / body weight / body weight + systemic / organ weight / epididymis / absolute + systemic / organ weight / …",12.7 mg/kg/day
same,LEL,[14]; [43],12.7 mg/kg/day
same,LOAEL,[14]; [43],12.7 mg/kg/day
same,NEL,[14]; [43],6.3 mg/kg/day
same,NOAEL,[14]; [43],6.3 mg/kg/day
same,LEL,[15]; [44],10 mg/kg/day
same,LOAEL,[15]; [44],10 mg/kg/day
same,NEL,[15]; [45],3 mg/kg/day
same,NOAEL,[15]; [45],3 mg/kg/day
same,NEL,"[15]; group: maternal, reproductive / reproductive performance / resorptions / resorptions",10 mg/kg/day
same,LEL,[15]; [46],30 mg/kg/day
same,LOAEL,[15]; [46],> 30 mg/kg/day
same,NOAEL,[15]; [46],≥ 30 mg/kg/day
same,LOAEL,[16]; systemic / pathology microscopic / kidney / nephropathy,18 mg/kg/day
same,LEL,[16]; systemic / pathology microscopic / kidney / nephropathy + systemic / hematology / hemoglobin (hgb) / hemoglobin (hgb) + systemic / pathology…,18 mg/kg/day
same,NEL,[16]; [47],1.8 mg/kg/day
same,NOAEL,[16]; [47],1.8 mg/kg/day
same,LEL,[17]; [48],218 mg/kg/day
same,LOAEL,[17]; [48],> 218 mg/kg/day
same,NEL,[17]; [48],72.9 mg/kg/day
same,NOAEL,[17]; [48],≥ 218 mg/kg/day
same,LOAEL,[17]; [49],22.4 mg/kg/day
same,NOAEL,[17]; [49],2.2 mg/kg/day
same,LEL,[17]; [50],1.9 mg/kg/day
same,NEL,[17]; [50],< 1.9 mg/kg/day
same,LOAEL,[18]; [51],1000 mg/kg/day
same,NEL,[18]; [51],10 mg/kg/day
same,NOAEL,[18]; [51],100 mg/kg/day
same,LEL,[18]; systemic / organ weight / pituitary gland / absolute + systemic / organ weight / prostate / absolute + systemic / pathology microscopic / …,100 mg/kg/day
CCC(C)OC(=O)N1CCCCC1CCO (stereo unspecified) [Icaridin],LEL,[19]; [52],50 mg/kg/day
same,NEL,[19]; [52],< 50 mg/kg/day
same,LOAEL,[19]; [53],> 200 mg/kg/day
same,NOAEL,[19]; [53],≥ 200 mg/kg/day
same,LOAEL,[20]; [54],1030 mg/kg/day
same,NEL,[20]; [54],100 mg/kg/day
same,NOAEL,[20]; [54],301 mg/kg/day
same,LEL,[20]; systemic / organ weight / kidney / relative to body weight + systemic / clinical chemistry / alanine aminotransferase (alt/sgpt) / alanine …,149 mg/kg/day
